Test results from patent publication US20060292683A1, “Cross-beta structures on microbial organisms” (Crossbeta Biosciences B.V., priority 2005, published 2006).

Key:
[1] = tested on: protein and peptide aggregates with cross-β structure conformation; experiment: ELISA binding to immobilized peptides with cross-β structure conformation; conditions: immobilized Aβ, FP13, TTR11, LAM12 or IAPP; GST-tagged F domains
Excerpt: FIG. 2: Binding of tPA, factor XII, fibronectin and finger domains thereof to compounds with cross-β structure. Panels A-C: Full-length purified tPA (Panel A), factor XII (Panel B) and fibronectin (Panel C) bind to immobilized peptides with cross-β structure conformation, in an ELISA.
Previously, we established that tissue-type plasminogen activator specifically interacts with protein and peptide aggregates that comprise a cross-β structure conformation, a structural element found in amyloid-like polypeptide assemblies (Bouma et al., 2003; Kranenburg et al., 2002). Now, we expanded this analysis to other proteins that resemble tPA domain architecture and we separated domains of tPA. Binding of full-length tPA, factor XII and fibronectin, as well as of fibronectin type I (finger, F) domains of tPA and factor XII and F4-5 of fibronectin, to protein and peptide aggregates with cross-β structure conformation was analyzed in an ELISA. […] Binding of tPA and factor XII was established for immobilized amyloid-β(1-40) (Aβ) with amyloid-like properties, fibrin peptide FP13, that encompasses the tPA activating sequence 148KRLEVDIDIKIR160 (SEQ ID NO:——————) of the fibrin α-chain, TTR11, which is an 11 amino-acid residues peptide from transthyretin that forms cross-β structure, and LAM12, which is a 12 amino-acid residues peptide from laminin that forms cross-β structure (FIG. 2, Panels A and B). Negative controls were freshly dissolved, monomerized Aβ and non-amyloid murine islet amyloid polypeptide (mIAPP). For fibronectin, human amyloid IAPP is depicted instead of LAM12 (FIG. 2, Panel C).

[2] = tested on: E. coli TOP10; experiment: Binding of dyes to E. coli TOP10 by visual inspection; set-up: species or system Escherichia coli; conditions: E. coli TOP10 after incubation with Thioflavin T, Congo red, tPA and IgIV
Experimental: (§1) Staphylococcus aureus Newman, which was a kind gift of Dr. Jos van Strijp and Dr Kok van Kessel (Dept. of Microbiology, University Medical Center Utrecht, the Netherlands) was plated on a blood plate from a stock stored at −70° C., and incubated overnight at 37° C. The plate was stored at 4° C. Escherichia coli strain TOP10 (Invitrogen, 44-0301) was plated on agar with Luria broth medium from a −80° C. glycerol stock, and incubated overnight at 37° C. The plate was stored at 4° C. Overnight cultures of 5 ml in Luria broth medium were grown at 37° C. with vigorous shaking and aeration, by streaking a single colony with the tip of a pipet and transferring the tip to the medium in a 15-ml tube. The cell density in overnight cultures was determined by measuring the absorbance at 600 nm (A600=1 is equivalent with 0.8×10^9 cells/ml). Cells were pelleted by centrifugation for one minute at 16,000*g or for ten minutes at 3,000*g. Medium was discarded. One half of the cells were resuspended in PBS in 1/10 of the original medium volume (10× concentration of the cells) by pipetting and swirling. These cells were used as reference cells. […]
(§2) Binding of cross-beta structure binding compounds to E. coli TOP10 and S. aureus Newman after incubation of the bacteria with Thioflavin T, Congo red, tPA and IgIV, as described in the Materials & Methods section, was determined in two ways. […]

[3] = tested on: S. aureus Newman; experiment: ROS production by bEnd.3 endothelial cells upon exposure to S. aureus Newman; format: cell-based, Staphylococcus aureus; conditions: 1.13×10^8 S. aureus cells/ml with either 1.25 mg/ml IgIV, 0.8 mg/ml finger domains, 220 μM Congo red, 220 μM ThT or 1.1 μM tPA
Excerpt: (§3) Glycated proteins comprising a cross-beta structure and amyloid-β induce inflammatory responses and are believed to contribute to the pathogenesis of certain protein misfolding diseases (diabetes type II, Alzheimer's disease). In general, misfolded proteins induce cellular dysfunction with enhanced expression or activation of inflammatory signals. The effect of misfolded proteins on endothelial cell (dys)function is, for example, measured by determining the levels of reactive oxygen species or nitric oxide or tissue factor in response to misfolded proteins. Human umbilical vein endothelial cells (HUVEC) that are isolated and cultured, according to standard protocols, are used, or other endothelial cells such as the murine microvascular bEnd.3 endothelial cell line. The levels of reactive oxygen species (ROS), like, for example, nitric oxide, are monitored using fluorescent probes, such as CM-H2DCF-DA. Alternatively, cell viability is monitored by standard MTT-assay. The levels of tissue factor expression is determined using a chromogenic assay with purified factor VII, purified factor X and chromogenic substrate S-2765 (Chromogenix), using cell lysates. For example, bEnd.3 cells are seeded at 120,000 cells/well of a 96-well culture dish, and cultured overnight. […]
(§4) To assess production of reactive oxygen species by cultured mouse microvascular bEnd.3 endothelial cells (ECs), cells are seeded at 128,000 cells/well of a 96-well plate (Costar, 3904). […] For the analysis of ROS production, 10 μl of tester samples and controls are added to separate wells, and fluorescence is measured every two minutes for 70 minutes upon excitation at 488 nm with the emission wavelength set to 538 nm. […]

[4] = tested on: Escherichia coli TOP10; experiment: ROS production by bEnd.3 endothelial cells upon exposure to E. coli TOP10; format: cell-based; conditions: 8.1×10^7 E. coli cells/ml with either 1.25 mg/ml IgIV, 0.8 mg/ml finger domains, 220 μM Congo red, 220 μM ThT or 1.1 μM tPA
Excerpt: as §3, §4

[5] = tested on: S. aureus Newman; experiment: Binding of dyes to S. aureus Newman by visual inspection; set-up: species or system Staphylococcus aureus; conditions: S. aureus Newman after incubation with Thioflavin T, Congo red, tPA and IgIV
Experimental: as §1, §2

fibronectin: full-length purified fibronectin
binding to cross-β structure rich compounds in ELISA [1]: bind specifically

Cc1ccc2c(c1)sc(-c1ccc(N(C)C)cc1)[n+]2C.[Cl-] [Thioflavin T]
binding of dye to bacterium cells, visual inspection [2]: bound to the cells | effect on ROS production by bEnd.3 ECs, co-incubation [3]: slightly decrease ROS production | effect on ROS production by bEnd.3 ECs, co-incubation [4]: to some extent

Nc1c(/N=N/c2ccc(-c3ccc(/N=N/c4cc(S(=O)(=O)O)c5ccccc5c4N)cc3)cc2)cc(S(=O)(=O)O)c2ccccc12 [Congo red]
binding of dye to bacterium cells, visual inspection [5]: intense red | effect on ROS production by bEnd.3 ECs, co-incubation [3]: strongly inhibits ROS expression | effect on ROS production by bEnd.3 ECs, co-incubation [4]: reverse ROS production

tPA: tissue-type plasminogen activator (Actilyse, Boehringer-Ingelheim)
effect on ROS production by bEnd.3 ECs, co-incubation [3]: does not influence S. aureus induced ROS production | binding to cross-β structure rich compounds in ELISA [1]: bind specifically | effect on ROS production by bEnd.3 ECs, co-incubation [4]: not able to reduce ROS production

fibronectin F4-5: recombinant fibronectin type I domains 4-5 of fibronectin with carboxy terminal GST-tag
binding to cross-β structure rich compounds in ELISA [1]: bind specifically

B1: factor XII: full-length purified factor XII (protein, UniProt P00748 1-615, looked up)
chain: MRALLLLGFLLVSLESTLSIPPWEAPKEHKYKAEEHTVVLTVTGEPCHFPFQYHRQLYHKCTHKGRPGPQPWCATTPNFDQDQRWGYCLEPKKVKDHCSKHSPCQKGGTCVNMPSGPHCLCPQHLTGNHCQKEKCFEPQLLRFFHKNEIWYRTEQAAVARCQCKGPDAHCQRLASQACRTNPCLHGGRCLEVEGHRLCHCPVGYTGAFCDVDTKASCYDGRGLSYRGLARTTLSGAPCQPWASEATYRNVTAEQARNWGLGGHAFCRNPDNDIRPWCFVLNRDRLSWEYCDLAQCQTPTQAAPPTPVSPRLHVPLMPAQPAPPKPQPTTRTPPQSQTPGALPAKREQPPSLTRNGPLSCGQRLRKSLSSMTRVVGGLVALRGAHPYIAALYWGHSFCAGSLIAPCWVLTAAHCLQDRPAPEDLTVVLGQERRNHSCEPCQTLAVRSYRLHEAFSPVSYQHDLALLRLQEDADGSCALLSPYVQPVCLPSGAARPSETTLCQVAGWGHQFEGAEEYASFLQEAQVPFLSLERCSAPDVHGSSILPGMLCAGFLEGGTDACQGDSGGPLVCEDQAAERRLTLQGIISWGSGCGDRNKPGVYTDVAYYLAWIREHTVS
modifications: full-length
binding to cross-β structure rich compounds in ELISA [1]: bind specifically
